Reference: patent US9924717B2, “Molecules having pesticidal utility, and intermediates, compositions, and processes, related thereto” (Dow AgroSciences LLC, priority 2016, dated 2018)

Assays:
Type in all cases: in vivo
[1] = system: Green Peach Aphid (Myzus persicae, MYZUPE) (GPA); assay: Bioassays on Green Peach Aphid (GPA), cabbage seedling foliar spray; conditions: Table ABC rating
Experimental: Example B: Bioassays on Green Peach Aphid (Myzus persicae, MYZUPE) (“GPA”) Certain molecules disclosed in this document were tested against GPA using procedures described in the following example. In the reporting of the results, the “GPA & YFM Rating Table” was used (See Table Section). Cabbage seedlings grown in 3-inch pots, with 2-3 small (3-5 cm) true leaves, were used as test substrate. The seedlings were infested with 20-50 GPA (wingless adult and nymph stages) one day prior to chemical application. Four pots with individual seedlings were used for each treatment. Test molecules (2 mg) were dissolved in 2 mL of acetone/methanol (1:1) solvent, forming stock solutions of 1000 ppm test molecule. The stock solutions were diluted 5× with 0.025% Tween 20 in water to obtain the solution at 200 ppm test molecule. A hand-held aspirator-type sprayer was used for spraying a solution to both sides of […] leaves until runoff. Reference plants (solvent check) were sprayed with the diluent only containing 20% by volume of acetone/methanol (1:1) solvent. Treated plants were held in a holding room for three days at approximately 25° C. and ambient relative humidity (RH) prior to grading. Evaluation was conducted by counting the number of live aphids per plant under a microscope. Percent Control was measured by using Abbott's correction formula (W. S. Abbott, “A Method of Computing the Effectiveness of an Insecticide” J. Econ. Entomol. 18 (1925), pp. 265-267) as follows. Corrected % Control=100*(X−Y)/X • where • X=No. of live aphids on solvent check plants and • Y=No. of live aphids on treated plants The results are indicated in the table entitled “Table ABC: Biological Results” (See Table Section).

[2] = system: Cabbage Looper (Trichoplusia ni, TRIPNI) (CL); assay: Bioassays on Cabbage Looper (CL), 128-well diet tray assay; conditions: Table ABC rating, Cabbage Looper
Experimental: (§1) Example A: Bioassays on Beet Armyworm (Spodoptera exigua, LAPHEG) (“BAW”), Corn Earworm (Helicoverpa zea, Helize) (“CEW”), and Cabbage Looper (Trichoplusia ni, TRIPNI) (“CL”)
(§2) Certain molecules disclosed in this document were tested against BAW, CEW, and CL using procedures described in the following examples. In the reporting of the results, the “BAW, CEW, & CL Rating Table” was used (See Table Section).
Bioassays on CL were conducted using a 128-well diet tray assay. one to five second instar CL larvae were placed in each well (3 mL) of the diet tray that had been previously filled with 1 mL of artificial diet to which 50 μg/cm^2 of the test molecule (dissolved in 50 μL of 90:10 acetone-water mixture) had been applied (to each of eight wells) and then allowed to dry. Trays were covered with a clear self-adhesive cover and held at 25° C., 14:10 light-dark for five to seven days. Percent mortality was recorded for the larvae in each well; activity in the eight wells was then averaged. The results are indicated in the table entitled “Table ABC: Biological Results” (See Table Section).
(§3) Bioassays on BAW and CL were conducted according to the procedures outlined in Example A: Bioassays on Beet Armyworm (“BAW”) and Cabbage Looper (“CL”) using the indicated concentrations.

[3] = system: Beet Armyworm (Spodoptera exigua, LAPHEG) (BAW); assay: Bioassays on Beet Armyworm (BAW), 128-well diet tray assay; conditions: Table ABC rating, Beet Armyworm
Experimental: as §1, §2
Bioassays on BAW were conducted using a 128-well diet tray assay. one to five second instar BAW larvae were placed in each well (3 mL) of the diet tray that had been previously filled with 1 mL of artificial diet to which 50 μg/cm^2 of the test molecule (dissolved in 50 μL of 90:10 acetone-water mixture) had been applied (to each of eight wells) and then allowed to dry. Trays were covered with a clear self-adhesive cover and held at 25° C., 14:10 light-dark for five to seven days. Percent mortality was recorded for the larvae in each well; activity in the eight wells was then averaged. The results are indicated in the table entitled “Table ABC: Biological Results” (See Table Section).
as §3

[4] = system: Yellow Fever Mosquito (Aedes aegypti, AEDSAE) (YFM); assay: Bioassays on Yellow Fever Mosquito (YFM), 96-well plate larval assay; conditions: Table ABC rating
Experimental: Example C: Bioassays on Yellow Fever Mosquito (Aedes aegypti, AEDSAE) (“YFM”)
Certain molecules disclosed in this document were tested against YFM using procedures described in the following paragraph. In the reporting of the results, the “GPA & YFM Rating Table” was used (See Table Section).
Master plates containing 400 μg of a molecule dissolved in 100 μL of dimethyl sulfoxide (DMSO) (equivalent to a 4000 ppm solution) are used. A master plate of assembled molecules contains 15 μL per well. To this plate, 135 μL of a 90:10 water:acetone mixture is added to each well. A robot (Biomek® NXP Laboratory Automation Workstation) is programmed to dispense 15 μL aspirations from the master plate into an empty 96-well shallow plate (“daughter” plate). There are 6 reps (“daughter” plates) created per master. The created daughter plates are then immediately infested with YFM larvae.
The day before plates are to be treated, mosquito eggs are placed in Millipore water containing liver powder to begin hatching (4 g. into 400 mL). After the daughter plates are created using the robot, they are infested with 220 μL of the liver powder/larval mosquito mixture (about 1 day-old larvae). After plates are infested with mosquito larvae, a non-evaporative lid is used to cover the plate to reduce drying. Plates are held at room temperature for 3 days prior to grading. After 3 days, each well is observed and scored based on mortality. The results are indicated in the table entitled “Table ABC: Biological Results” (See Table Section).

| Structure (SMILES) | GPA [1] | pest or weed control at 50 µg/cm2 [2] [%] | pest or weed control at 50 µg/cm2 [3] [%] | YFM [4] |
| --- | --- | --- | --- | --- |
| CO/N=C\NC(=O)c1ccc(/C(F)=C/C(c2cc(Cl)c(Cl)c(Cl)c2)C(F)(F)F)cc1C(F)(F)F (mixture of isomers) [F19, N-((E/Z)-(methoxyimino)methyl)-4-((Z)-1,4,4,4-tetrafluoro-3-(3,4,5-trichlorophenyl)but-1-en-1-yl)-2-(trifluoromethyl)benzamide] | B (More than 0-Less than 80) | 50 to 100 | 50 to 100 | – |
| O=C(NC1CC1)c1ccc(/C(F)=C/C(c2cc(Cl)c(Cl)c(Cl)c2)C(F)(F)F)cc1C(F)(F)F (stereo not drawn) [F3, (Z)—N-Cyclopropyl-4-(1,4,4,4-tetrafluoro-3-(3,4,5-trichlorophenyl)but-1-en-1-yl)-2-(trifluoromethyl)benzamide] | B (More than 0-Less than 80) | 50 to 100 | 50 to 100 | – |
| O=C(NC1CC(F)(F)C1)c1ccc(/C(F)=C/C(c2cc(Cl)c(Cl)c(Cl)c2)C(F)(F)F)cc1C(F)(F)F (stereo not drawn) [F7, (Z)—N-(3,3-difluorocyclobutyl)-4-(1,4,4,4-tetrafluoro-3-(3,4,5-trichlorophenyl)but-1-en-1-yl)-2-(trifluoromethyl)benzamide] | A (80-100) | 50 to 100 | 50 to 100 | – |
| O=C(NC1CCC(F)(F)CC1)c1ccc(/C(F)=C/C(c2cc(Br)c(Cl)c(Br)c2)C(F)(F)F)cc1C(F)(F)F (stereo not drawn) [F32, (Z)-4-(3-(3,5-Dibromo-4-chlorophenyl)-1,4,4,4-tetrafluorobut-1-en-1-yl)-N-(4,4-difluorocyclohexyl)-2-(trifluoromethyl)benzamide] | – | 50 to 100 | 50 to 100 | A (80-100) |
| F/C(=C\C(c1cc(Cl)c(Cl)c(Cl)c1)C(F)(F)F)c1ccc(C(=S)NCC(F)(F)F)c(C(F)(F)F)c1 (stereo not drawn) [F33, (Z)-4-(1,4,4,4-tetrafluoro-3-(3,4,5-trichlorophenyl)but-1-en-1-yl)-N-(2,2,2-trifluoroethyl)-2-(trifluoromethyl)benzothioamide] | – | 50 to 100 | 50 to 100 | B (More than 0-Less than 80) |
| CN(CC(F)(F)F)C(=S)c1ccc(/C(F)=C/C(c2cc(Cl)c(Cl)c(Cl)c2)C(F)(F)F)cc1C(F)(F)F (stereo not drawn) [F34, (Z)—N-Methyl-4-(1,4,4,4-tetrafluoro-3-(3,4,5-trichlorophenyl)but-1-en-1-yl)-N-(2,2,2-trifluoroethyl)-2-(trifluoromethyl)benzothioamide] | – | 50 to 100 | 50 to 100 | B (More than 0-Less than 80) |
| O=C(NC1CCC(F)(F)CC1)c1ccc(/C(F)=C/C(c2cc(Br)cc(Br)c2)C(F)(F)F)cc1C(F)(F)F (stereo not drawn) [F40, (Z)-4-(3-(3,5-Dibromophenyl)-1,4,4,4-tetrafluorobut-1-en-1-yl)-N-(4,4-difluorocyclohexyl)-2-(trifluoromethyl)benzamide] | – | 50 to 100 | 50 to 100 | A (80-100) |
| O=C(NC1CCC(F)(F)CC1)c1ccc(/C(F)=C/C(c2cc(Cl)c(F)c(Cl)c2)C(F)(F)F)cc1C(F)(F)F (stereo not drawn) [F41, (Z)-4-(3-(3,5-Dichloro-4-fluorophenyl)-1,4,4,4-tetrafluorobut-1-en-1-yl)-N-(4,4-difluorocyclohexyl)-2-(trifluoromethyl)benzamide] | – | 50 to 100 | 50 to 100 | A (80-100) |
| O=C(NC1CC1)c1ccc(/C(F)=C/C(c2cc(Br)cc(Br)c2)C(F)(F)F)cc1C(F)(F)F (stereo not drawn) [F42, (Z)—N-Cyclopropyl-4-(3-(3,5-dibromophenyl)-1,4,4,4-tetrafluorobut-1-en-1-yl)-2-(trifluoromethyl)benzamide] | – | 50 to 100 | 50 to 100 | A (80-100) |
| O=C(NC1CC1)c1ccc(/C(F)=C/C(c2cc(Cl)c(F)c(Cl)c2)C(F)(F)F)cc1C(F)(F)F (stereo not drawn) [F43, (Z)—N-Cyclopropyl-4-(3-(3,5-dichloro-4-fluorophenyl)-1,4,4,4-tetrafluorobut-1-en-1-yl)-2-(trifluoromethyl)benzamide] | – | 50 to 100 | 50 to 100 | A (80-100) |
| O=C(NC1CCC(F)(F)CC1)c1ccc(/C(F)=C/C(c2ccc(Br)c(Br)c2)C(F)(F)F)cc1C(F)(F)F (stereo not drawn) [F44, (Z)-4-(3-(3,4-Dibromophenyl)-1,4,4,4-tetrafluorobut-1-en-1-yl)-N-(4,4-difluorocyclohexyl)-2-(trifluoromethyl)benzamide] | – | 50 to 100 | 50 to 100 | A (80-100) |
| CC(NC(=O)c1ccc(/C(F)=C/C(c2ccc(Br)c(Br)c2)C(F)(F)F)cc1C(F)(F)F)C(F)(F)F (stereo not drawn) [F45, 4-((Z)-3-(3,4-Dibromophenyl)-1,4,4,4-tetrafluorobut-1-en-1-yl)-2-(trifluoromethyl)-N-(1,1,1-trifluoropropan-2-yl)benzamide] | – | 50 to 100 | 50 to 100 | B (More than 0-Less than 80) |
| O=C(NC1CC1)c1ccc(/C(F)=C/C(c2ccc(Br)c(Br)c2)C(F)(F)F)cc1C(F)(F)F (stereo not drawn) [F46, (Z)—N-Cyclopropyl-4-(3-(3,4-dibromophenyl)-1,4,4,4-tetrafluorobut-1-en-1-yl)-2-(trifluoromethyl)benzamide] | – | 50 to 100 | 50 to 100 | A (80-100) |
| O=C(NCc1ccccn1)c1ccc(/C(F)=C/C(c2cc(Cl)c(Cl)c(Cl)c2)C(F)(F)F)cc1C(F)(F)F (stereo not drawn) [F51, (Z)—N-(Pyridin-2-ylmethyl)-4-(1,4,4,4-tetrafluoro-3-(3,4,5-trichlorophenyl)but-1-en-1-yl)-2-(trifluoromethyl)benzamide] | – | 50 to 100 | 50 to 100 | A (80-100) |
| CC(NC(=O)c1ccc(/C(F)=C/C(c2cc(Cl)c(Cl)c(Cl)c2)C(F)(F)F)cc1C(F)(F)F)c1ccccn1 (stereo not drawn) [F52, (Z)—N-(1-(Pyridin-2-yl)ethyl)-4-(1,4,4,4-tetrafluoro-3-(3,4,5-trichlorophenyl)but-1-en-1-yl)-2-(trifluoromethyl)benzamide] | – | 50 to 100 | 50 to 100 | A (80-100) |
| O=C(NCC(F)(F)F)c1ccc(/C(F)=C/C(c2cc(Cl)c(Cl)c(Cl)c2)C(F)(F)F)c2ccccc12 (stereo not drawn) [PF1, (Z)-4-(1,4,4,4-Tetrafluoro-3-(3,4,5-trichlorophenyl)but-1-en-1-yl)-N-(2,2,2-trifluoroethyl)-1-naphthamide] | – | 50 to 100 | 50 to 100 | A (80-100) |
